Literature values in US7148022B2, “Assay for anti-viral agent” (The University Court of the University of St. Andrews, priority 2000, dated 2006).

Test system: picornavirus
Conditions: background statement, refs 9 and 10

C[C@H]1CCC/C=C/[C@@H]2C[C@H](O)C[C@H]2[C@H](O)/C=C/C(=O)O1 [Brefeldin-A]
inhibition of picornavirus replication: one of the most potent known inhibitors
